In the NIST ThermoML archive (doi:10.1016/j.jct.2017.02.009):

Test: xn = mol fraction of the nth substance listed
Conditions: 100 kPa, Liquid; for mass density: Vibrating tube method; for viscosity: Capillary tube (Ostwald / Ubbelohde) method

O=C1CCCO1 [γ-butyrolactone] + C[S+](C)[O-]
Conditions	mass density, 293.15 K [kg/m3]	mass density, 298.15 K [kg/m3]	mass density, 303.15 K [kg/m3]	mass density, 313.15 K [kg/m3]	viscosity, 298.15 K [mPa·s]
x2 = 0	1129.4	1124.5	1119.6	1109.8	1.72
x2 = 0.051	1127.5	1122.6	1117.7	1107.9	–
x2 = 0.098	1125.9	1121	1116.1	1106.3	1.724
x2 = 0.152	1124	1119.1	1114.2	1104.4	–
x2 = 0.221	1121.7	1116.8	1111.9	1102.1	1.724
x2 = 0.251	1120.7	1115.7	1110.8	1101	–
x2 = 0.298	1119.1	1114.2	1109.3	1099.5	1.724
x2 = 0.352	1117.4	1112.5	1107.6	1097.8	–
x2 = 0.398	1116	1111	1106.1	1096.3	1.739
x2 = 0.447	1114.5	1109.6	1104.7	1094.8	–
x2 = 0.498	1113	1108	1103.1	1093.3	1.763
x2 = 0.546	1111.6	1106.6	1101.7	1091.9	–
x2 = 0.596	1110.2	1105.2	1100.3	1090.4	1.791
x2 = 0.648	1108.7	1103.8	1098.8	1089	–
x2 = 0.7	1107.4	1102.4	1097.4	1087.6	1.839
x2 = 0.742	1106.3	1101.3	1096.4	1086.4	–
x2 = 0.797	1104.9	1099.9	1094.9	1085	1.883
x2 = 0.848	1103.6	1098.7	1093.7	1083.7	–
x2 = 0.9	1102.4	1097.4	1092.4	1082.5	1.921
x2 = 0.95	1101.3	1096.3	1091.3	1081.3	–
